In ChEMBL document CHEMBL1125820, “Structure-activity relationship of mutagenic aromatic and heteroaromatic nitro compounds. Correlation with molecular orbital energies and hydrophobicity” (J Med Chem, 1991):

How the values were obtained:
Salmonella typhimurium = test: Mutagenic activity in an Ames test on Salmonella Typhimurium TA98; Activity is log of revertants/nmol; assay type: functional, Salmonella enterica subsp. enterica serovar Typhimurium; parameters: scale not given here
[1] = Partition coefficient (logP); conditions: octanol/water

Row | Structure (SMILES) | Activity (Salmonella typhimurium) | logP [1]
1 | O=[N+]([O-])c1ccc(F)cc1 | -0.23 | 1.8
2 | CCOc1ccccc1[N+](=O)[O-] | -2.22 | 2.35
3 | O=[N+]([O-])c1ccc2ccc3cccc4cc(O)c1c2c34 | 1.89 | 4.34
4 | CC(=O)Oc1ccc2c(c1)Cc1cc([N+](=O)[O-])ccc1-2 | 1.86 | 3.46
5 | O=[N+]([O-])c1ccc2c(c1)Cc1ccccc1-2 [2-NITROFLUORENE] | 1.43 | 3.37
6 | O=[N+]([O-])c1cc2cccnc2c2ncccc12 | 0.59 | 1.84
7 | O=[N+]([O-])c1ccc2c(c1)Cc1cc(I)ccc1-2 | 2.97 | 5.09
8 | O=[N+]([O-])c1ccc2c(c1)CCc1ccccc1-2 | 1.99 | 4.53
9 | O=[N+]([O-])C1Cc2cccc3cccc1c23 (stereo not given) | 1.77 | 2.72
10 | NC(=O)N/N=C/c1ccc([N+](=O)[O-])o1 [NITROFURAZONE] | 1.02 | 0.23
11 | O=[N+]([O-])c1cccc2ncccc12 | -0.96 | 1.86
12 | Cc1nc2cc([N+](=O)[O-])ccc2[nH]1 | -0.51 | 1.94
13 | O=[N+]([O-])c1cc2c(cc1Cl)Oc1cc(Cl)c(Cl)cc1O2 | -0.53 | 6.68
14 | Nc1ccc(Cl)cc1[N+](=O)[O-] [4-CHLORO-2-NITROANILINE] | -2 | 2.72
15 | Nc1c(Br)cc([N+](=O)[O-])cc1[N+](=O)[O-] | -1.32 | 2.78
16 | O=[N+]([O-])c1ccc2ccc3c4ccccc4cc4ccc1c2c43 | 2.82 | 5.87
17 | O=[N+]([O-])c1c2c3c(ccc4cccc(c43)CC2)c2ccccc12 | 0.3 | 6.16
18 | Nc1cccc(-c2ccc([N+](=O)[O-])cc2)c1 | 0.25 | 2.68
19 | O=[N+]([O-])c1cc2c3c(cc([N+](=O)[O-])cc3c1)-c1ccccc1-2 | 2.32 | 4.44
20 | Cn1ncc2cccc([N+](=O)[O-])c21 | -1 | 1.77
21 | O=[N+]([O-])c1ccc2c3ccccc3c3ccccc3c2c1 | 4.09 | 5.41
22 | O=[N+]([O-])c1ccc(F)c(Cl)c1 | -1.21 | 2.74
23 | O=[N+]([O-])c1ccc2ccc3cccc4c5c(c1c2c34)CCCC5 | 0.7 | 6.26

Row | Structure (SMILES) | Activity (Salmonella typhimurium) | logP [1]
24 | O=[N+]([O-])c1cc([N+](=O)[O-])c2c3c(c4cccc5ccc1c2c54)CCCC3 | 2.41 | 6.01
25 | O=[N+]([O-])c1cc2ccccc2c2ccc3ccccc3c12 | -0.22 | 5.41
26 | Nc1ccc2ccc3ccc([N+](=O)[O-])c4ccc1c2c34 | 2.43 | 3.63
27 | O=[N+]([O-])c1ccc2c(c1)C=CC2 | 0.08 | 2.74
28 | O=[N+]([O-])c1ccc2c(c1)Cc1cc(Cl)ccc1-2 | 3.11 | 4.68
29 | O=C(/C=C/c1ccc([N+](=O)[O-])cc1)c1ccc([N+](=O)[O-])cc1 | -1.42 | 2.73
30 | O=[N+]([O-])c1ccc2ccc3ccc(O)c4ccc1c2c34 | 1.49 | 4.19
31 | O=[N+]([O-])c1cc(Cl)ccc1Cl | -1.54 | 2.9
32 | O=[N+]([O-])c1cc2c3c(cc([N+](=O)[O-])c([N+](=O)[O-])c3c1)-c1ccccc1-2 | 3.44 | 4.18
33 | O=[N+]([O-])C1=Cc2c3c1cccc3cc1ccc3ccccc3c21 | 0.26 | 5.07
34 | O=[N+]([O-])c1cccc2c1-c1cccc3c([N+](=O)[O-])ccc-2c13 | 5.09 | 4.44
35 | O=[N+]([O-])c1ccc(F)cc1F | -1.66 | 1.89
36 | O=[N+]([O-])C1=CC=CC2Nc3cccc([N+](=O)[O-])c3NC12 (stereo not given) | 1.26 | 2.29
37 | O=[N+]([O-])c1ccc2c(ccc3c4ccccc4ccc23)c1 | -0.22 | 5.41
38 | Nc1ccc(-c2cccc([N+](=O)[O-])c2)cc1 | -1.52 | 2.68
39 | O=[N+]([O-])c1ccc2ccc3c(O)ccc4ccc1c2c43 | 1.34 | 4.19
40 | O=[N+]([O-])c1cc2c3c(cccc3c1[N+](=O)[O-])-c1ccccc1-2 | 2.62 | 4.44
41 | O=[N+]([O-])c1ccc2c3ccccc3c3c([N+](=O)[O-])ccc4ccc1c2c43 | 1.99 | 5.61
42 | O=C/C=C/c1ccc([N+](=O)[O-])o1 | 1.97 | 0.96
43 | O=[N+]([O-])c1c(O)cc2cccc3c2c1-c1ccccc1-3 | 2.26 | 4.66
44 | O=[N+]([O-])C1=Cc2ccc3ccc4cccc5cc1c2c3c45 | 0.77 | 4.35
45 | O=[N+]([O-])c1ccc2c3c(cccc13)-c1cc3ccccc3cc1-2 | 2.76 | 5.87
46 | O=[N+]([O-])c1ccc2c(c1)CC=C2 | 0.96 | 2.74

Row | Structure (SMILES) | Activity (Salmonella typhimurium) | logP [1]
47 | O=[N+]([O-])c1cccc2c([N+](=O)[O-])cccc12 | 0.52 | 2.58
48 | O=[N+]([O-])C1=Cc2cc3cc4ccccc4cc3c3cccc1c23 | 0.67 | 5.07
49 | O=[N+]([O-])c1ccc2c3c(ccc([N+](=O)[O-])c13)-c1ccccc1-2 | 3.62 | 4.44
50 | O=[N+]([O-])c1ccc2c(c1)Cc1cc(F)ccc1-2 | 2.68 | 4.11
51 | Cc1cc2ccccc2cc1[N+](=O)[O-] | 0 | 3.43
52 | C=Cc1ccc([N+](=O)[O-])cc1 | -1.3 | 2.61
53 | N#Cc1ccc2c(c1)Cc1cc([N+](=O)[O-])ccc1-2 | 2.51 | 3.4
54 | O=[N+]([O-])c1ccc2c(c1)Cc1cc(O)ccc1-2 | 1.68 | 3.43
55 | O=[N+]([O-])c1ccc2c(c1)-c1cccc3cccc-2c13 | 4.05 | 4.69
56 | O=[N+]([O-])c1ccc2ccc3cc4c(c5ccc1c2c35)CCCC4 | 0.9 | 6.57
57 | O=[N+]([O-])c1ccc2c3c(c4c([N+](=O)[O-])ccc5ccc1c2c54)CCCC3 | 2.41 | 6.01
58 | O=[N+]([O-])c1c(Cl)c(Cl)c2c(c1Cl)Oc1cc(Cl)c(Cl)cc1O2 | -0.33 | 7.84
59 | Cc1c([N+](=O)[O-])ccc2ccccc12 | -0.7 | 3.43
60 | CN1Cc2ccc([N+](=O)[O-])cc2N1 | -0.41 | 1.77
61 | O=[N+]([O-])c1ccc2ccc3c4c(cc5ccc1c2c53)CCCC4 | 0.3 | 6.57
62 | O=[N+]([O-])c1c2ccccc2c2ccc3cccc4ccc1c2c43 | 1.64 | 5.87
63 | O=[N+]([O-])c1ccc2ncccc2c1 | -1.08 | 1.84
64 | O=C1Nc2ccc([N+](=O)[O-])cc2C1=O [5-NITROISATIN] | -0.94 | 0.47
65 | Nc1ccc([N+](=O)[O-])cc1O | -2.4 | 1.36
66 | O=[N+]([O-])C1=Cc2c3ccc4ccccc4c3cc3cccc1c23 | 0.86 | 5.07
67 | Cc1ccc2c(c1)Cc1cc([N+](=O)[O-])ccc1-2 | 2.36 | 4.62
68 | COc1ccccc1[N+](=O)[O-] [2-NITROANISOLE] | -2.7 | 1.73
69 | O=[N+]([O-])c1ccc2c(c1)Nc1cccc([N+](=O)[O-])c1N2 | 2.02 | 2.29

Row | Structure (SMILES) | Activity (Salmonella typhimurium) | logP [1]
70 | O=[N+]([O-])c1cccc2cn[nH]c12 [7-NITROINDAZOLE] | 0.11 | 1.75
71 | O=[N+]([O-])c1ccc2cccc3c2c1CC3 | 1 | 3.81
72 | O=C1c2ccccc2-c2cc([N+](=O)[O-])ccc21 | 2.13 | 3.06
73 | O=[N+]([O-])c1ccc2c(c1)Oc1ccccc1O2 | 1.79 | 4.73
74 | Nc1ccc([N+](=O)[O-])cc1N | 0.63 | 0.88
75 | Nc1cccc(-c2ccccc2[N+](=O)[O-])c1 | -2 | 2.68
76 | Cc1ccc2cccc([N+](=O)[O-])c2n1 | -2.7 | 1.99
77 | O=[N+]([O-])c1ccc2c3c(cccc13)C=C2 | 1.91 | 3.36
78 | O=[N+]([O-])c1cc2ccc3ccc4ccc5ccc6ccc1c1c6c5c4c3c21 | 0.45 | 6.79
79 | O=[N+]([O-])c1ccc(F)cc1[N+](=O)[O-] | -1.84 | 1.89
80 | O=[N+]([O-])c1ccc2ccc3c4c(cc5ccc1c2c53)C(O)C(O)C=C4 (stereo not given) | 3.08 | 3.01
81 | O=C(/C=C/c1ccc([N+](=O)[O-])o1)N/N=C/c1ccc([N+](=O)[O-])o1 | 2.45 | 2.79
82 | O=[N+]([O-])c1ccc2c(ccc3ccccc32)c1 | 2.11 | 4.23
83 | O=[N+]([O-])c1cc2c3ccccc3ccc2c2ccccc12 | 1.75 | 5.41
84 | O=[N+]([O-])c1ccc(-c2ccc([N+](=O)[O-])cc2)cc1 | 1.17 | 3.52
85 | CC(=O)Nc1ccc2c(c1)Cc1cc([N+](=O)[O-])ccc1-2 | 2.85 | 3.08
86 | O=[N+]([O-])C1=CC=CC2Nc3ccccc3NC12 (stereo not given) | 0.87 | 2.52
87 | O=[N+]([O-])c1ccc2c(c1)NCC2 | -0.48 | 1.92
88 | O=[N+]([O-])c1c2ccccc2cc2c1ccc1ccccc12 | -0.52 | 5.41
89 | O=[N+]([O-])c1ccc2c3c(cccc13)-c1ccccc1-2 | 3.67 | 4.69
90 | CC(=O)Oc1cc([N+](=O)[O-])c2ccc3cccc4ccc1c2c43 | 4.22 | 4.42
